US5168101A, “Sulfonamide derivatives” (Ono Pharmaceutical Co., Ltd., priority 1987, dated 1992)

Legend:
[1] = test system: increasing of blood pressure in guinea pigs; experiment: Stimulatory effect on increasing of blood pressure in guinea pigs (agonistic effect on TXA2); type: in vivo; details: 100 μg/kg, i.v. (n = 2~4)
Text: (§1) For example, in a standard laboratory test, the effects were possible to be confirmed by (i) inhibitory effect on increasing of blood pressure induced by STA2 in guinea pigs (antagonistic effect) and (ii) stimulatory effect on increasing of blood pressure in guinea pigs (agnostic effect).
(§2) Inhibitory effect on increasing of blood pressure induced by TXA2 in guinea pigs and stimulatory effect on increasing of blood pressure in guinea pigs: A 7% sodium bicarbonate buffer solution (pH 7.6~8.6) of each tested compounds was administered intravenously via carotid vein or orally to a urethane-anaesthetized male guinea pig weighing 250~350 g, at a rate of 100 μg/kg animal body weight. Increasing of blood pressure was measured in guinea pigs administered test compounds intravenously. On the other hand, to guinea pigs administered test compounds orally, then a solution of STA2 in phosphate buffer (pH 7.4) was administered. Change of the blood pressure was measured at carotid artery and then inhibition ratio (%) was calculated.

[2] = test system: increasing of blood pressure induced by STA2; experiment: Inhibitory effect on increasing of blood pressure induced by STA2 in guinea pigs; type: in vivo; details: 100 μg/kg
Description: (iii) Inhibitory effect on increasing of blood pressure induced by STA2 in guinea pigs: A 7% sodium bicarbonate buffer solution (pH 7.6-8.6) of each tested compounds was administered intravenously via carotid vein or orally to a urethane-anaesthetized male guinea pig weighing 250~350 g, at a rate of 10-1000 μg/kg animal body weight. And then guinea pigs were administered intravenously a solution of STA2 in phosphate buffer (pH 7.4). change of the blood pressure was measured at carotid artery and then inhibition ratio (%) was calculated.
as §1, §2

[3] = test system: platelet aggregation induced by STA2 in human blood; experiment: Inhibitory effect on platelet aggregation induced by STA2 in human blood; type: cell-based; details: platelet aggregation induced by STA2 in human blood (platelet rich plasma, method of Born); read-out: Inhibitory effects on platelet aggregation (IC50)
Text: For example, in a standard laboratory test, the effects were possible to be confirmed by (i) inhibitory effect on platelet aggregation induced by STA2 (9α, 11α-epithio-15α-hydroxy-11α-carbathromba-5Z,13E-dienoic acid) in human blood, (ii) inhibitory effect on contraction of smooth muscle induced by STA2 in guinea pigs or (iii) inhibitory effect on increasing of blood pressure induced by STA2 in guinea pigs (intravenously and orally).
(i) Inhibitory effect on platelet aggregation induced by STA2 in human blood: Whole blood of healthy human adult was collected with citric acid, and the mixture (20 ml) was centrifuged (180×g) for 10 min. The supernatant obtained was diluted with sufficient platelet poor plasma to obtain plasma which contains 300,000 platelet cells power μl. A solution of tested compound in ethanol (1 μl) was added to the obtained plasma (250 μl), and then a solution of STA2 is ethanol was added to the mixtures. The measurement was carried out followed by the method of Born and then IC50 was calculated.

Row | SMILES | IC50 [3] [nM] | (ii) Effect of increasing of blood pressure in guinea pig [1] [mmHg] | (i) Duration of more than 50% inhibit increasing of blood pressure induced STA2 pig [2] [min]
1 | Cc1ccc(S(=O)(=O)N[C@H]2[C@H]3CC[C@H](C3)[C@@H]2C/C=C\CCCC(N)=O)cc1 |  | 9 | > 340
2 | O=C(O)CCC/C=C\[C@H]1C[C@@H]2C[C@H]1[C@@H](NS(=O)(=O)c1ccc(Br)cc1)C2 (relative stereo) [1 (c), (5Z)-6-[(1R*, 2R*, 4R*, 6S*)-6-(4-bromobenzenesulfonylamino)bicyclo[2.2.1]heptan-2-yl]hex-5-enoic acid] | 1000 |  | 
3 | Cc1ccc(S(=O)(=O)NC[C@H]2[C@H]3CC[C@H](C3)[C@@H]2/C=C\CCCC(=O)O)cc1 (relative stereo) [1 (p), (5Z)-6-[(1R*, 2R*, 3S*, 4S*)-3-[N-tosylaminomethyl]bicyclo[2.2.1]heptan-2-yl]hex-5-enoic acid] | 90 |  | 
4 | O=C(O)CCC/C=C\[C@H]1CCC[C@@H]1CNS(=O)(=O)c1ccc(Br)cc1 (relative stereo) [1 (v), (5Z)-6-[(1R, 2S*)-2-[N-(4-bromobenzenesulfonyl)aminomethyl]cyclopentan-1-yl]hex-5-enoic acid] | 220 |  | 
5 | O=C(O)CCC/C=C\[C@H]1[C@@H]2CC[C@@H](C2)[C@@H]1CNS(=O)(=O)c1ccccc1 [1 (q), (5Z)-6-[(1R, 2R, 3S, 4S)-3-(N-benzenesulfonylaminomethyl)bicyclo[2.2.1]heptan-2-yl]hex-5-enoic acid] | 1670 |  | 
6 | O=C(O)CCC/C=C\[C@H]1[C@@H]2CC[C@@H](C2)[C@@H]1CCNS(=O)(=O)c1ccc(Br)cc1 [1 (u), (5Z)-6-[(1R, 2R, 3S, 4S)-3-[2-[N-(4-bromobenzenesulfonyl)amino]ethyl]bicyclo[2.2.1]heptan-2-yl]hex-5-enoic acid] | 1000 |  | 
7 | CCCCCCCCOC(=O)CCC/C=C\[C@@H]1[C@H]2CC[C@H](C2)[C@H]1CNS(=O)(=O)c1ccc(Br)cc1 [5 (g), octyl(5Z)-6-[(1S, 2S, 3R, 4R)-3-[N-(4-bromobenzenesulfonyl)aminomethyl]bicyclo[2.2.1]heptan-2-yl]hex-5-enoate] |  | 1 | > 300
8 | CC(C)[C@@H]1CC[C@@H](C)C[C@H]1OC(=O)CCC/C=C\[C@@H]1[C@H]2CC[C@H](C2)[C@H]1CNS(=O)(=O)c1ccc(Br)cc1 [5 (h), menthyl(5Z)-6-[(1S, 2S, 3R, 4R)-3-[N-(4-bromobenzenesulfonyl)aminomethyl]bicyclo[2.2.1]heptan-2-yl]hex-5-enoate] |  | 1 | > 300
9 | NC(=O)CCC/C=C\[C@@H]1[C@H]2CC[C@H](C2)[C@H]1CNS(=O)(=O)c1ccc(Br)cc1 [6 (d), (5Z)-6-[(1S, 2S, 3R, 4R)-3[N-(4-bromobenzenesulfonyl)aminomethyl]bicyclo[2.2.1]heptan-2-yl]hex-5-enamide] |  | 6 | > 240
10 | Cc1ccc(S(=O)(=O)N[C@H]2[C@H]3CC[C@H](C3)[C@@H]2C/C=C\CCCC(=O)NC(C)C(=O)O)cc1 (stereo partly drawn) [7 (b), amide of (5Z)-7-[(1R, 2S, 3S, 4S)-3-tosylaminobicyclo[2.2.1]heptan-2-yl]hept-5-enoic acidand alanine] |  | 11 | > 290
11 | Cc1ccc(S(=O)(=O)N[C@H]2[C@H]3CC[C@H](C3)[C@@H]2C/C=C\CCCC(=O)NC(CCC(=O)O)C(=O)O)cc1 (stereo partly drawn) [7 (c), amide of (5Z)-7-[(1R, 2S, 3S, 4S)-3-tosylaminobicyclo[2.2.1]heptan-2-yl]hept-5-enoic acidand glutamic acid] |  | 7 | > 290
12 | Cc1ccc(S(=O)(=O)N[C@H]2[C@H]3CC[C@H](C3)[C@@H]2C/C=C\CCCC(=O)NCC(=O)O)cc1 [Example 7, Amide of (5Z)-7-[(1R, 2S, 3S, 4S)-3-tosylaminobicyclo [2.2.1]heptan-2-yl]hept-5-enoic acid and glycine] |  | 9 | > 270
13 | Cc1ccc(S(=O)(=O)N[C@H]2[C@H]3CC[C@H](C3)[C@@H]2C/C=C\CCCC(=O)N[C@@H](CCCCN)C(=O)O)cc1 [Example 8, Amide of (5Z)-7-[(1R, 2S, 3S, 4S)-3-tosylaminobicyclo [2.2.1]heptan-2-yl]hept-5-enoic acid and lysine] |  | 7 | 305
14 | Cc1ccc(S(=O)(=O)N[C@H]2[C@H]3CC[C@H](C3)[C@@H]2C/C=C\CCCC(=O)O)cc1 [The compared compound, reference compound] |  | 36 | 205

More lines, main results first:

Row | IC50 [3] [nM] | SMILES | (ii) Effect of increasing of blood pressure in guinea pig [1] [mmHg] | (i) Duration of more than 50% inhibit increasing of blood pressure induced STA2 pig [2] [min]
15 | 660 | O=C(O)CCC/C=C\[C@H]1C[C@@H]2CC[C@H]1[C@@H](NS(=O)(=O)c1ccc(Br)cc1)C2 (relative stereo) [1 (a), (5Z)-6-[(1R*, 2R*, 4S*, 6S*)-6-(4-bromobenzenesulfonylamino)bicyclo[2.2.2]octan-2-yl]hex-5-enoic acid] |  | 
16 | 170 | O=C(O)CCC/C=C\[C@@H]1CCC[C@H](NS(=O)(=O)c2ccc(Br)cc2)C1 (relative stereo) [1 (m), (5Z)-6-[(1R*, 3S*)-3-(4-bromobenzenesulfonylamino)cyclohexyl]hex-5-enoic acid] |  | 
17 | 520 | O=C(O)CCC/C=C\[C@H]1CCCC[C@@H]1CNS(=O)(=O)c1ccc(Br)cc1 (relative stereo) [1 (t), (5Z)-6-[(1R*, 2S*,)-2-[N-(4-bromobenzenesulfonyl)aminometh-yl]cyclohexan-1-yl]hex-5-enoicacid] |  | 
18 | 680 | Cc1ccc(S(=O)(=O)NC[C@H]2CCC[C@@H]2/C=C\CCCC(=O)O)cc1 (relative stereo) [1 (w), (5Z)-6-[(1R, 2S*)-2-[N-tosylaminomethyl]cyclopentan-1-yl]hex-5-enoic acid] |  | 
19 | 1780 | Cc1ccc(S(=O)(=O)N[C@@H]2C[C@@H]3C[C@H](C/C=C\CCCC(=O)O)[C@H]2C3)cc1 (relative stereo) [4 (a)] |  | 
20 | 30 | O=C(O)CCC/C=C\[C@@H]1CC[C@H](NS(=O)(=O)c2ccc(Br)cc2)C1 [1 (i), (5Z)-6-[(1R, 3S)-3-(4-bromobenzenesulfonylamino)cyclopentyl]hex-5-enoic acid] |  | 
21 | 280 | O=C(O)CCC/C=C\[C@H]1[C@@H]2CC[C@@H](C2)[C@@H]1CNS(=O)(=O)c1ccc(Br)cc1 [1 (r), (5Z)-6[(1R, 2R, 3S, 4S)-3-[N-(4-bromobenzenesulfonyl)aminomethyl]bicyclo[2.2.1]heptan-2-yl]hex-5-enoic acid] |  | 
22 | 520 | Cc1ccc(S(=O)(=O)NCC2C3CCC(C3)C2C=CCCCC(=O)O)cc1 [1 (s), (5Z)-6-[(1S, *2S*, 3S*, 4R*)-3-[N-tosylaminomethyl]bicyclo[2.2.1]heptan-2-yl]hex-5-enoic acid] |  | 
23 | 50 | Cc1ccc(S(=O)(=O)NC[C@@H]2[C@@H]3CC[C@@H](C3)[C@H]2/C=C\CCCC(=O)O)cc1 [1 (x), (5Z)-6-[(1S, 2S, 3R, 4R)-3-[N-tosyl-aminomethyl]bicyclo[2.2.1]heptan-2-yl]hex-5-enoic acid] |  | 
24 | 10 | O=C(O)CCC/C=C\[C@@H]1[C@H]2CC[C@H](C2)[C@H]1CNS(=O)(=O)c1ccc(Br)cc1 [1 (y), (5Z)-6-[(1S, 2S, 3R, 4R)-3-[N-(4-bromobenzenesulfonyl)aminomethyl]bicyclo[2.2.1]heptan-2-yl]hex-5-enoic acid] |  | 
